# Laboratory results from patent US12077503B2, “Substituted cyclic amides and their use as herbicides” (FMC CORPORATION, priority 2015, dated 2024).
# Key:
# Type in all cases: in vivo
# Kochia (Kochia scoparia) [1] = assay: Test A preemergence; settings: Bassia scoparia, pre-emergence, 240 h
# Outline: (§1)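 Seeds sprayed preemergence with a directed soil spray, or plants at 2 to 10 cm height and one- to two-leaf stage sprayed postemergence, with test chemicals in a non-phytotoxic solvent mixture containing surfactant, in loam soil–sand blend. Injury rated visually against untreated controls after about 10 d in greenhouse, 0 (no effect) to 100 (complete control).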
# [2] = test system: barnyardgrass (Echinochloa crus-galli); assay: Test A preemergence; settings: Echinochloa crus-galli, pre-emergence, 240 h
# Outline: as §1
# [3] = test system: giant foxtail (Setaria faberii); assay: Test A preemergence; settings: Setaria faberi, pre-emergence, 240 h
# Outline: as §1
# [4] = test system: pigweed (Amaranthus retroflexus); assay: Test A preemergence; settings: Amaranthus retroflexus, pre-emergence, 240 h
# [5] = test system: ragweed (common ragweed, Ambrosia elatior); assay: Test A preemergence; settings: Ambrosia artemisiifolia, pre-emergence, 240 h
# Outline: as §1
# [6] = test system: ryegrass, Italian (Italian ryegrass, Lolium multiflorum); assay: Test A preemergence; settings: Lolium multiflorum, pre-emergence, 240 h
# Outline: as §1
# [7] = test system: Galium (catchweed bedstraw, Galium aparine); assay: Test A postemergence; settings: Galium, post-emergence, 240 h, 125 g ai/ha, Postemergence; visual injury after approximately 10 d; 0 to 100 scale where 0 is no effect and 100 is complete control; read-out: Plant response rating, Galium
# Outline: as §1
# Kochia (Kochia scoparia) [8] = assay: Test A postemergence; settings: Bassia scoparia, post-emergence, 240 h, 125 g ai/ha, Postemergence; visual injury after approximately 10 d; 0 to 100 scale where 0 is no effect and 100 is complete control; read-out: Plant response rating, Kochia
# Outline: as §1
# [9] = test system: barnyardgrass (Echinochloa crus-galli); assay: Test A postemergence; settings: Echinochloa crus-galli, post-emergence, 240 h, 125 g ai/ha, Postemergence; visual injury after approximately 10 d; 0 to 100 scale where 0 is no effect and 100 is complete control; read-out: Plant response rating, Barnyardgrass
# Outline: as §1
# [10] = test system: blackgrass (Alopecurus myosuroides); assay: Test A postemergence; settings: Alopecurus myosuroides, post-emergence, 240 h, 125 g ai/ha, Postemergence; visual injury after approximately 10 d; 0 to 100 scale where 0 is no effect and 100 is complete control; read-out: Plant response rating, Blackgrass
# Outline: as §1
# corn (Zea mays) = assay: Test A postemergence; settings: Zea mays, post-emergence, 240 h, 125 g ai/ha, Postemergence; visual injury after approximately 10 d; 0 to 100 scale where 0 is no effect and 100 is complete control
# Outline: as §1
# [11] = test system: giant foxtail (Setaria faberii); assay: Test A postemergence; settings: Setaria faberi, post-emergence, 240 h, 125 g ai/ha, Postemergence; visual injury after approximately 10 d; 0 to 100 scale where 0 is no effect and 100 is complete control; read-out: Plant response rating, Foxtail, Giant
# Outline: as §1
# [12] = test system: pigweed (Amaranthus retroflexus); assay: Test A postemergence; settings: Amaranthus retroflexus, post-emergence, 240 h, 125 g ai/ha, Postemergence; visual injury after approximately 10 d; 0 to 100 scale where 0 is no effect and 100 is complete control; read-out: Plant response rating, Pigweed
# Outline: as §1
# [13] = test system: ragweed (common ragweed, Ambrosia elatior); assay: Test A postemergence; settings: Ambrosia artemisiifolia, post-emergence, 240 h, 125 g ai/ha, Postemergence; visual injury after approximately 10 d; 0 to 100 scale where 0 is no effect and 100 is complete control; read-out: Plant response rating, Ragweed
# Outline: as §1
# [14] = test system: ryegrass, Italian (Italian ryegrass, Lolium multiflorum); assay: Test A postemergence; settings: Lolium multiflorum, post-emergence, 240 h, 125 g ai/ha, Postemergence; visual injury after approximately 10 d; 0 to 100 scale where 0 is no effect and 100 is complete control; read-out: Plant response rating, Ryegrass, Italian
# Outline: as §1
# [15] = test system: wheat (Triticum aestivum); assay: Test A postemergence; settings: Triticum aestivum, post-emergence, 240 h, 125 g ai/ha, Postemergence; visual injury after approximately 10 d; 0 to 100 scale where 0 is no effect and 100 is complete control; read-out: Plant response rating, Wheat
# Outline: as §1
# [16] = test system: barnyardgrass (Echinochloa crus-galli); assay: Test B flooded paddy test; settings: Echinochloa crus-galli, Flood, 250 g ai/ha; scale of 0 to 100 where 0 is no effect and 100 is complete control; read-out: Barnyardgrass plant response rating
# Outline: (§2)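 Plants at 2-leaf stage flooded to 3 cm above soil, with compounds applied directly to paddy water and that depth maintained. Plants kept in greenhouse 13–15 d. Visual rating versus controls on a 0 (no effect) to 100 (complete control) scale.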
# [17] = test system: ducksalad (Heteranthera limosa); assay: Test B flooded paddy test; settings: Heteranthera limosa, Flood, 250 g ai/ha; scale of 0 to 100 where 0 is no effect and 100 is complete control; read-out: Ducksalad plant response rating
# Outline: as §2
# rice (Oryra sativa) = assay: Test B flooded paddy test; settings: Oryza sativa, Flood, 250 g ai/ha; scale of 0 to 100 where 0 is no effect and 100 is complete control; read-out: Rice plant response rating
# Outline: as §2
# [18] = test system: sedge, umbrella (small-flower umbrella sedge, Cyperus difformis); assay: Test B flooded paddy test; settings: Cyperus difformis, Flood, 250 g ai/ha; scale of 0 to 100 where 0 is no effect and 100 is complete control; read-out: Sedge, Umbrella plant response rating
# Outline: as §2
compound,measurement,setting,value
CN1C[C@H](c2ccc(C(F)(F)F)cc2)[C@@H](C(=O)Nc2ccccc2Br)C1=O [Compound 943],pest or weed control at 125 g/ha,"Kochia (Kochia scoparia) [1]; 125 g ai/ha, Preemergence, visual injury rating after approximately 10 d, read-out: Kochia plant response rating (0 to 100 scale, 0 is no effect, 100 is complete control)",70%
same,pest or weed control at 500 g/ha,"Kochia (Kochia scoparia) [1]; 500 g ai/ha, preemergence, visual injury rating about 10 d after treatment, 0 to 100 scale (0 no effect, 100 complete control), read-out: Kochia plant response rating",80%
same,pest or weed control at 125 g/ha,"[2]; 125 g ai/ha, Preemergence, visual injury rating after approximately 10 d, read-out: Barnyardgrass plant response rating (0 to 100 scale, 0 is no effect, 100 is complete control)",90%
same,pest or weed control at 500 g/ha,"[2]; 500 g ai/ha, preemergence, visual injury rating about 10 d after treatment, 0 to 100 scale (0 no effect, 100 complete control), read-out: Barnyardgrass plant response rating",90%
same,pest or weed control at 125 g/ha,"[3]; 125 g ai/ha, Preemergence, visual injury rating after approximately 10 d, read-out: Foxtail, Giant plant response rating (0 to 100 scale, 0 is no effect, 100 is complete control)",90%
same,pest or weed control at 500 g/ha,"[3]; 500 g ai/ha, preemergence, visual injury rating about 10 d after treatment, 0 to 100 scale (0 no effect, 100 complete control), read-out: Foxtail, Giant plant response rating",90%
same,pest or weed control at 125 g/ha,"[4]; 125 g ai/ha, Preemergence, visual injury rating after approximately 10 d, read-out: Pigweed plant response rating (0 to 100 scale, 0 is no effect, 100 is complete control)",40%
same,pest or weed control at 500 g/ha,"[4]; 500 g ai/ha, preemergence, visual injury rating about 10 d after treatment, 0 to 100 scale (0 no effect, 100 complete control), read-out: Pigweed plant response rating",50%
same,pest or weed control at 125 g/ha,"[5]; 125 g ai/ha, Preemergence, visual injury rating after approximately 10 d, read-out: Ragweed plant response rating (0 to 100 scale, 0 is no effect, 100 is complete control)",0%
same,pest or weed control at 500 g/ha,"[5]; 500 g ai/ha, preemergence, visual injury rating about 10 d after treatment, 0 to 100 scale (0 no effect, 100 complete control), read-out: Ragweed plant response rating",30%
same,pest or weed control at 125 g/ha,"[6]; 125 g ai/ha, Preemergence, visual injury rating after approximately 10 d, read-out: Ryegrass, Italian plant response rating (0 to 100 scale, 0 is no effect, 100 is complete control)",0%
same,pest or weed control at 500 g/ha,"[6]; 500 g ai/ha, preemergence, visual injury rating about 10 d after treatment, 0 to 100 scale (0 no effect, 100 complete control), read-out: Ryegrass, Italian plant response rating",50%
same,pest or weed control at 125 g/ha,[7],70%
same,pest or weed control at 125 g/ha,Kochia (Kochia scoparia) [8],30%
same,pest or weed control at 125 g/ha,[9],70%
same,pest or weed control at 125 g/ha,[10],40%
same,"Corn plant response rating (crop injury, 0 = no effect, 100 = complete kill) at 125 g/ha",corn (Zea mays),20%
same,pest or weed control at 125 g/ha,[11],90%
same,pest or weed control at 125 g/ha,[12],40%
same,pest or weed control at 125 g/ha,[13],0%
same,pest or weed control at 125 g/ha,[14],0%
same,plant injury at 125 g/ha,[15],0%
same,pest or weed control at 250 g/ha,[16],0%
same,pest or weed control at 250 g/ha,[17],50%
same,pest or weed control at 250 g/ha,rice (Oryra sativa),0%
same,pest or weed control at 250 g/ha,[18],0%
